Reference: patent publication US20140315876A1, “BETA-LACTAMASE INHIBITORS” (priority 2013, published 2014)
Counter-ions that a name gives are not always drawn.

What follows are molecules tested on bacterial strains that express the class D cephalosporinase OXA-15 (assay: Synergy MIC / standard BLI potentiation MIC assay, strains expressing OXA-15). Conditions: in the presence of a β-lactam; comparator Avibactam (comparator compound CCC).
Format: cell-based, E. coli
Description: The experimental protocol was performed according to Clinical and Laboratory Standards Institute (CLSI) guidelines with modifications as described below (CLSI guidelines can be derived from the CLSI document M07-A9 published in January 2012: “Methods for Dilution Antimicrobial Susceptibility Tests for Bacteria That Grow Aerobically; Approved Standard-Ninth Edition”).
To prepare for MIC testing, frozen glycerol stocks of clinical isolates (Klebsiella pneumoniae, Eschericia coli, Enterobacter spp, Citrobacter spp, or Pseudomonas aeruginosa) were used to streak for isolated colonies on rich, non-selective, tryptic soy agar containing 5% sheep's blood (TSAB). Frozen glycerol stocks of laboratory engineered, isogenic E. coli strains, which contain cloned β-lactamase expressing plasmids were used to streak for isolated colonies on rich, selective LB agar supplemented with 25 μg/mL tetracycline to maintain the plasmid. All strains were incubated at 37° C. for 18-24 hrs.
On the day of testing, primary cultures were started by scraping off 5-10 colonies from the TSAB plates containing clinical strains or the tetracycline supplemented LB plates containing engineered strains. The clinical strain material was suspended in ˜5 mL of cation adjusted Mueller Hinton Broth (CAMHB) in 14 mL culture tubes. The engineered strain material was suspended in CAMHB (supplemented with 25 μg/mL tetracycline) in 14 mL culture tubes. All strains were incubated at 37° C. with aeration (200 rpm) for ˜2 hrs until the optical density at 600 nm (OD600) was ≧0.1.
The two compound components of the assay were each diluted in CAMHB and added to the 96-well broth microdilution assay plates. 50 μL of the β-lactam was added to each well of the assay plate in 2-fold dilutions with final concentrations ranging from 128 to 0.13 μg/mL. 25 μL of the BLI compound was added to all wells in the broth microdilution plates at a final concentration of 4 μg/mL. Inoculum cultures were prepared by standardizing the primary cultures to OD600=0.1 and then adding 20 μL of the adjusted primary culture per 1 mL CAMHB for clinical strains or CAMHB (supplemented with tetracycline at 100 μg/mL) for engineered strains, so that the final inoculum density was ˜10^5 colony forming units per milliliter. Diluted inoculum cultures were used to inoculate 25 μL per well in 96-well broth microdilution assay plates. The final volume of each well was 100 μL and contained a β-lactam at different concentrations, a BLI compound at 4 μg/mL concentration, the bacterial culture at an OD600 of approximately 0.001 and when necessary tetracycline at 25 μg/mL.
Plates were incubated for 18-20 hours at 37° C. with aeration (200 rpm). Following incubation, growth was confirmed visually placing plates over a viewing apparatus (stand with a mirror underneath) and then OD600 was measured using a SpectraMax 340PC384 plate reader (Molecular Devices, Sunnyvale, Calif.). Growth was defined as turbidity that could be detected with the naked eye or achieving minimum OD600 of 0.1. MIC values were defined as the lowest concentration producing no visible turbidity.
The synergy MIC (sMIC) assay determines the concentration of the BLI required to potentiate the activity of a fixed concentration of a β-lactam antibiotic against β-lactamase producing bacterial strains. The experimental protocol was performed according to Clinical and Laboratory Standards Institute (CLSI) guidelines with modifications as described below (CLSI guidelines can be derived from the CLSI document M07-A9 published in January 2012: “Methods for Dilution Antimicrobial Susceptibility Tests for Bacteria That Grow Aerobically; Approved Standard-Ninth Edition”). […]
`N=C(N)NCc1nnc([C@@H]2CC[C@@H]3CN2C(=O)N3OS(=O)(=O)O)o1` [Compound 704, (2S,5R)-2-(5-(guanidinomethyl)-1,3,4-oxadiazol-2-yl)-7-oxo-1,6-diazabicyclo[3.2.1]octan-6-yl hydrogen sulfate] was tested, and the “activity against bacterial strains that express the class D cephalosporinase OXA-15, compared with Avibactam” value (from here on “activity … compared with Avibactam”) was “more active than Avibactam”. In the case of `Nc1nnc([C@@H]2CC[C@@H]3CN2C(=O)N3OS(=O)(=O)O)o1` [Compound 707, (2S,5R)-2-(5-amino-1,3,4-oxadiazol-2-yl)-7-oxo-1,6-diazabicyclo[3.2.1]octan-6-yl hydrogen sulfate], the “activity … compared with Avibactam” value is reported as “more active than Avibactam”. For `N=C(N)N1CCC(c2nnc([C@@H]3CC[C@@H]4CN3C(=O)N4OS(=O)(=O)O)o2)CC1` [Compound 712, (2S,5R)-2-(5-(1-carbamimidoylpiperidin-4-yl)-1,3,4-oxadiazol-2-yl)-7-oxo-1,6-diazabicyclo[3.2.1]octan-6-yl hydrogen sulfate], the “activity … compared with Avibactam” value was “more active than Avibactam”. `O=C1N2C[C@@H](CC[C@H]2c2nnc(N3CCNCC3)o2)N1OS(=O)(=O)O` [Compound 713, (2S,5R)-7-oxo-2-(5-(piperazin-1-yl)-1,3,4-oxadiazol-2-yl)-1,6-diazabicyclo[3.2.1]octan-6-yl hydrogen sulfate] was tested, and the “activity … compared with Avibactam” value was “more active than Avibactam”. `N=C(N)NCCCc1nnc([C@@H]2CC[C@@H]3CN2C(=O)N3OS(=O)(=O)O)o1` [Compound 714, (2S,5R)-2-(5-(3-guanidinopropyl)-1,3,4-oxadiazol-2-yl)-7-oxo-1,6-diazabicyclo[3.2.1]octan-6-yl hydrogen sulfate] was tested, and the “activity … compared with Avibactam” value was “more active than Avibactam”. For `NCC(O)c1nnc([C@@H]2CC[C@@H]3CN2C(=O)N3OS(=O)(=O)O)o1` (stereo partly drawn) [Compound 715, (2S,5R)-2-(5-(2-amino-1-hydroxyethyl)-1,3,4-oxadiazol-2-yl)-7-oxo-1,6-diazabicyclo[3.2.1]octan-6-yl hydrogen sulfate], the “activity … compared with Avibactam” value was “more active than Avibactam”. For `NCCNCCc1nnc([C@@H]2CC[C@@H]3CN2C(=O)N3OS(=O)(=O)O)o1` [Compound 716, (2S,5R)-2-(5-(2-((2-aminoethyl)amino)ethyl)-1,3,4-oxadiazol-2-yl)-7-oxo-1,6-diazabicyclo[3.2.1]octan-6-yl hydrogen sulfate], the “activity … compared with Avibactam” value was “more active than Avibactam”. In the case of `NCC(N)c1nnc([C@@H]2CC[C@@H]3CN2C(=O)N3OS(=O)(=O)O)o1` (stereo partly drawn) [Compound 717, (2S,5R)-2-(5-(1,2-diaminoethyl)-1,3,4-oxadiazol-2-yl)-7-oxo-1,6-diazabicyclo[3.2.1]octan-6-yl hydrogen sulfate], the “activity … compared with Avibactam” value is reported as “more active than Avibactam”. For `O=C1N2C[C@@H](CC[C@H]2c2nnc(C3CCNCC3)s2)N1OS(=O)(=O)O` [Compound 719, (2S,5R)-7-oxo-2-(5-(piperidin-4-yl)-1,3,4-thiadiazol-2-yl)-1,6-diazabicyclo[3.2.1]octan-6-yl hydrogen sulfate], the “activity … compared with Avibactam” value was “more active than Avibactam”. In the case of `O=C1N2C[C@@H](CC[C@H]2c2nnc(CC3CNC3)o2)N1OS(=O)(=O)O` [Compound 725, (2S,5R)-2-(5-(azetidin-3-ylmethyl)-1,3,4-oxadiazol-2-yl)-7-oxo-1,6-diazabicyclo[3.2.1]octan-6-yl hydrogen sulfate], the “activity … compared with Avibactam” value is reported as “more active than Avibactam”. For `NCC(O)Cc1nnc([C@@H]2CC[C@@H]3CN2C(=O)N3OS(=O)(=O)O)o1` (stereo partly drawn) [Compound 733, (2S,5R)-2-(5-(3-amino-2-hydroxypropyl)-1,3,4-oxadiazol-2-yl)-7-oxo-1,6-diazabicyclo[3.2.1]octan-6-yl hydrogen sulfate], the “activity … compared with Avibactam” value was “more active than Avibactam”. In the case of `N=C(N)N[C@H]1C[C@H](c2nnc([C@@H]3CC[C@@H]4CN3C(=O)N4OS(=O)(=O)O)o2)C1` [Compound 748, (2S,5R)-2-(5-((1r,3S)-3-guanidinocyclobutyl)-1,3,4-oxadiazol-2-yl)-7-oxo-1,6-diazabicyclo[3.2.1]octan-6-yl hydrogen sulfate], the “activity … compared with Avibactam” value is reported as “more active than Avibactam”. `N[C@H]1C[C@H](NCc2nnc([C@@H]3CC[C@@H]4CN3C(=O)N4OS(=O)(=O)O)o2)C1` [Compound 757, (2S,5R)-2-(5-((((1r,3S)-3-aminocyclobutyl)amino)methyl)-1,3,4-oxadiazol-2-yl)-7-oxo-1,6-diazabicyclo[3.2.1]octan-6-yl hydrogen sulfate] was tested, and the “activity … compared with Avibactam” value was “more active than Avibactam”. For `O=C1N2C[C@@H](CC[C@H]2c2nnc(CNC3CCNCC3)o2)N1OS(=O)(=O)O` [Compound 769, (2S,5R)-7-oxo-2-(5-((piperidin-4-ylamino)methyl)-1,3,4-oxadiazol-2-yl)-1,6-diazabicyclo[3.2.1]octan-6-yl hydrogen sulfate], the “activity … compared with Avibactam” value was “more active than Avibactam”. In the case of `NC1CCN(c2nnc([C@@H]3CC[C@@H]4CN3C(=O)N4OS(=O)(=O)O)o2)CC1` [Compound 773, (2S,5R)-2-(5-(4-aminopiperidin-1-yl)-1,3,4-oxadiazol-2-yl)-7-oxo-1,6-diazabicyclo[3.2.1]octan-6-yl hydrogen sulfate], the “activity … compared with Avibactam” value is reported as “more active than Avibactam”. For `O=C1N2C[C@@H](CC[C@H]2c2nnc([C@@H]3CNCCN3)o2)N1OS(=O)(=O)O` [Compound 778, (2S,5R)-7-oxo-2-(5-((S)-piperazin-2-yl)-1,3,4-oxadiazol-2-yl)-1,6-diazabicyclo[3.2.1]octan-6-yl hydrogen sulfate], the “activity … compared with Avibactam” value was “more active than Avibactam”. `N[C@H]1CC[C@@H](c2nnc([C@@H]3CC[C@@H]4CN3C(=O)N4OS(=O)(=O)O)o2)CC1` [Compound 780, (2S,5R)-2-(5-((1s,4R)-4-aminocyclohexyl)-1,3,4-oxadiazol-2-yl)-7-oxo-1,6-diazabicyclo[3.2.1]octan-6-yl hydrogen sulfate] was tested, and the “activity … compared with Avibactam” value was “more active than Avibactam”. In the case of `N[C@H]1CC[C@H](c2nnc([C@@H]3CC[C@@H]4CN3C(=O)N4OS(=O)(=O)O)o2)CC1` [Compound 781, (2S,5R)-2-(5-((1r,4S)-4-aminocyclohexyl)-1,3,4-oxadiazol-2-yl)-7-oxo-1,6-diazabicyclo[3.2.1]octan-6-yl hydrogen sulfate], the “activity … compared with Avibactam” value is reported as “more active than Avibactam”. With `O=C1N2C[C@@H](CC[C@H]2c2nnc(CCCN3CCNCC3)o2)N1OS(=O)(=O)O` [Compound 792, (2S,5R)-7-oxo-2-(5-(3-(piperazin-1-yl)propyl)-1,3,4-oxadiazol-2-yl)-1,6-diazabicyclo[3.2.1]octan-6-yl hydrogen sulfate] the “activity … compared with Avibactam” value was “more active than Avibactam”. In the case of `O=C1N2C[C@@H](CC[C@H]2c2nnc(N3CCNCC3)s2)N1OS(=O)(=O)O` [Compound 797, (2S,5R)-7-oxo-2-(5-(piperazin-1-yl)-1,3,4-thiadiazol-2-yl)-1,6-diazabicyclo[3.2.1]octan-6-yl hydrogen sulfate], the “activity … compared with Avibactam” value is reported as “more active than Avibactam”.
